Assay: Average particle diameter of preparation (Zetasizer Nano ZS)
Type: physicochemical
Conditions: Comparative Examples 1 to 8, prepared as Example 118 with apo-b siRNA
Source text: Preparations were produced using the compounds obtained in Examples 1 to 117, as follows.
APO-B siRNA was used as the nucleic acid. APO-B siRNA suppresses expression of an apolipoprotein-B (hereinafter, “apo-b”) gene and has a sense strand with the base sequence 5′-GmUCAmUCACACmUGAAmUACCAAmU-3′ (the sugars attached to the bases appended with m are 2′-O-methyl-substituted riboses), and an antisense strand with the base sequence 5′-[…]-3′ (the 5′-end is phosphorylated). The sense strand and the antisense strand were obtained from Nippon EGT, GeneDesign, Inc., Invitrogen or Hokkaido System Science Co., Ltd., and annealed to prepare the nucleic acid (hereinafter, “apo-b siRNA”).
A solution comprising the constituent components was prepared by dissolving each of the weighed samples in 90 vol % ethanol in 8.947/1.059/5.708/13.697 mmol/L [compounds 1 to 117 obtained in Examples 1 to 117/sodium 1,2-dimyristoyl-sn-glycero-3-phosphoethanolamine-N-(methoxy(polyethylene glycol)-2000) (PEG-DMPE Na,N-(carbonylmethoxypolyethylene glycol 2000)-1,2-dimyristoyl-sn-glycero-3-phosphoethanolamine sodium salt, NOF Corporation)/distearoylphosphatidyl choline (DSPC, 1,2-distearoyl-sn-glycero-3-phosphocholine, NOF Corporation)/cholesterol (Avanti Polar Lipids)]. Separately, apo-b siRNA/distilled water (24 mg/mL) was diluted with a Tris-EDTA buffer (200 mM Tris-HCl, 20 mM EDTA, Invitrogen) and a 20 mM citric acid buffer (pH 5.0) to prepare a 1.5 mg/mL apo-b siRNA aqueous solution (2 mM Tris-EDTA/20 mM citric acid buffer, pH 5.0).
The resulting lipid solution was heated to 37° C., and a 100-μL portion was transferred to a preparation container. The apo-b siRNA aqueous solution (100 μL) was then added thereto while being stirred. Then, a 20 mM citric acid buffer (containing 300 mM NaCl, pH 6.0; 200 μL) was added to the lipid nucleic acid mixed suspension (200 μL) while being stirred. The siRNA concentration was brought to 10 μM by dropping a Dulbecco phosphate buffer (DPBS, Invitrogen; 662 μL), and preparations (compositions comprising compounds 1 to 117 and the nucleic acid) were obtained.
The average particle diameter of the complex between the cationic lipis and the nucleic acid in each preparation was measured with a particle diameter measurement device (Malvern; Zetasizer Nano ZS).

Row | average particle diameter of the complex between the cationic lipis and the nucleic acid in the preparation [nm] | Structure (SMILES)
1 | 167.8 | CCCCC/C=C\C/C=C\CCCCCCCCOC1CN(Cc2ccccc2)C[C@H]1OCCCCCCCC/C=C\C/C=C\CCCCC (stereo in doubt) [Compound VI-3, (3R,4R)-1-Benzyl-3,4-bis((9Z,12Z)-octadec-9,12-dienyloxy)pyrrolidine, reference compound]

Same assay, conditions: average particle diameter of cationic lipid/nucleic acid complex; Example 118 preparation: compound/PEG-DMPE Na/DSPC/cholesterol with apo-b siRNA

Row | Particle diameter of Preparetion [nm] | Structure (SMILES)
2 | 143.5 | CCCCCC/C=C\CCCCCCCCOC[C@@H]1CNC[C@H]1COCCCCCCCC/C=C\CCCCCC (relative stereo) [Compound 44, trans-3,4-bis(((Z)-Hexadec-9-enyloxy)methyl)pyrrolidine]
3 | 123.9 | CCCCCC/C=C\CCCCCCCCOC[C@@H]1CN(C)C[C@H]1COCCCCCCCC/C=C\CCCCCC (relative stereo) [Compound 51, trans-3,4-bis(((Z)-Hexadec-9-enyloxy)methyl)-1-methylpyrrolidine]
4 | 148.7 | CCCCCCCC/C=C\CCCCCCCCOC[C@@H]1CNC[C@H]1COCCCCCCCC/C=C\CCCCCCCC (relative stereo) [Compound 101, trans-3,4-bis(((Z)-Octadec-9-enyloxy)methyl)pyrrolidine]
5 | 133.0 | CCCCC/C=C\C/C=C\CCCCCCCCOC[C@@H]1CNC[C@H]1COCCCCCCCC/C=C\C/C=C\CCCCC (relative stereo) [Compound 102, trans-3,4-bis(((9Z,12Z)-Octadec-9,12-dienyloxy)methyl)pyrrolidine]
6 | 141.5 | CCCCCCCC/C=C\CCCCCCCC(=O)OC[C@@H]1CNC[C@H]1COC(=O)CCCCCCC/C=C\CCCCCCCC (relative stereo) [Compound 104, trans-3,4-bis(((Z)-Octadec-9-enoyloxy)methyl)pyrrolidine]
7 | 125.6 | CCCCC/C=C\C/C=C\CCCCCCCC(=O)OC[C@@H]1CNC[C@H]1COC(=O)CCCCCCC/C=C\C/C=C\CCCCC (relative stereo) [Compound 105, trans-3,4-bis(((9Z,12Z)-Octadec-9,12-dienoyloxy)methyl)pyrrolidine]
8 | 139.2 | CCCCCCCC/C=C\CCCCCCCCOC[C@@H]1CN(C)C[C@H]1COCCCCCCCC/C=C\CCCCCCCC (relative stereo) [Compound 106, trans-1-Methyl-3,4-bis(((Z)-octadec-9-enyloxy)methyl)pyrrolidine]
9 | 112.0 | CCCCCCCC/C=C\CCCCCCCCOC[C@@H]1C[N+](C)(C)C[C@H]1COCCCCCCCC/C=C\CCCCCCCC.[Cl-] (relative stereo) [Compound 111, trans-1,1-Dimethyl-3,4-bis(((Z)-octadec-9-enyloxy)methyl)pyrrolidinium chloride]
10 | 119.2 | CCCCC/C=C\C/C=C\CCCCCCCCOC[C@@H]1C[N+](C)(C)C[C@H]1COCCCCCCCC/C=C\C/C=C\CCCCC.[Cl-] (relative stereo) [Compound 112, trans-1,1-Dimethyl-3,4-bis(((9Z,12Z)-octadec-9,12-dienyloxy)methyl)pyrrolidinium chloride]
11 | 154.2 | CCCCCCCCCCCCCCO[C@@H]1CNC[C@H]1OCCCCCCCCCCCCCC [Compound 5, (3R,4R)-3,4-bis(Tetradecyloxy)pyrrolidine]

Continued, compound first:

Row | Structure (SMILES) | Particle diameter of Preparetion [nm]
12 | CCCCC/C=C\C/C=C\CCCCCCCCCCOC[C@@H]1CNC[C@H]1COCCCCCCCCCC/C=C\C/C=C\CCCCC (relative stereo) [Compound 103, trans-3,4-bis(((11Z,14Z)-Icos-11,14-dienyloxy)methyl)pyrrolidine] | 141.8
13 | CCCCC/C=C\C/C=C\CCCCCCCCOC[C@@H]1CN(C)C[C@H]1COCCCCCCCC/C=C\C/C=C\CCCCC (relative stereo) [Compound 107, trans-1-Methyl-3,4-bis(((9Z,12Z)-octadec-9,12-dienyloxy)methyl)pyrrolidine] | 139.1
14 | CCCCC/C=C\C/C=C\CCCCCCCCCCOC[C@@H]1CN(C)C[C@H]1COCCCCCCCCCC/C=C\C/C=C\CCCCC (relative stereo) [Compound 108, trans-3,4-bis(((11Z,14Z)-Icos-11,14-dienyloxy)methyl)-1-methylpyrrolidine] | 144.9
15 | CCCCCCCC/C=C\CCCCCCCC(=O)OC[C@@H]1CN(C)C[C@H]1COC(=O)CCCCCCC/C=C\CCCCCCCC (relative stereo) [Compound 109, trans-1-Methyl-3,4-bis(((Z)-octadec-9-enoyloxy)methyl)pyrrolidine] | 129.6
16 | CCCCCCCC/C=C\CCCCCCCC(=O)OC[C@@H]1C[N+](C)(C)C[C@H]1COC(=O)CCCCCCC/C=C\CCCCCCCC.[Cl-] (relative stereo) [Compound 113, trans-1,1-Dimethyl-3,4-bis(((Z)-octadec-9-enoyloxy)methyl)pyrrolidinium chloride] | 103.5
17 | CCCCC/C=C\C/C=C\CCCCCCCC(=O)OC[C@@H]1C[N+](C)(C)C[C@H]1COC(=O)CCCCCCC/C=C\C/C=C\CCCCC.[Cl-] (relative stereo) [Compound 114, trans-1,1-Dimethyl-3,4-bis(((9Z,12Z)-octadec-9,12-dienoyloxy)methyl)pyrrolidinium chloride] | 108.2
18 | CCCCC/C=C\C/C=C\CCCCCCCCO[C@H]1CNC[C@@H]1OCCCCCCCC/C=C\C/C=C\CCCCC (stereo in doubt) [Compound 43, (3S,4S)-3,4-bis((9Z,12Z)-Octadec-9,12-dienyloxy)pyrrolidine] | 150.0
19 | CCCCC/C=C\C/C=C\CCCCCCCCO[C@H]1CN(C)C[C@@H]1OCCCCCCCC/C=C\C/C=C\CCCCC (stereo in doubt) [Compound 50, (3S,4S)-1-Methyl-3,4-bis((9Z,12Z)-octadec-9,12-dienyloxy)pyrrolidine] | 129.2
20 | CCCCC/C=C\C/C=C\CCCCCCCCO[C@@H]1CNC[C@H]1OCCCCCCCC/C=C\C/C=C\CCCCC [Compound 1, (3R,4R)-3,4-bis((9Z,12Z)-Octadec-9,12-dienyloxy)pyrrolidine] | 137.4
21 | CCCCC/C=C\C/C=C\CCCCCCCC(=O)O[C@@H]1CNC[C@H]1OC(=O)CCCCCCC/C=C\C/C=C\CCCCC [Compound 2, (3R,4R)-Pyrrolidine-3,4-diyl di((9Z,12Z)-octadec-9,12-dienoate)] | 139.6
22 | CCCCC/C=C\C/C=C\CCCCCCCCO[C@H]1CNC[C@H]1OCCCCCCCC/C=C\C/C=C\CCCCC [Compound 3, (3R,4S)-3,4-bis((9Z,12Z)-Octadec-9,12-dienyloxy)pyrrolidine] | 152.8
23 | CCCCCCCC/C=C\CCCCCCCCO[C@@H]1CNC[C@H]1OCCCCCCCC/C=C\CCCCCCCC [Compound 4, (3R,4R)-3,4-bis((Z)-Octadec-9-enyloxy)pyrrolidine] | 160.6
24 | CCCCCC/C=C\CCCCCCCCO[C@@H]1CNC[C@H]1OCCCCCCCC/C=C\CCCCCC [Compound 6, (3R,4R)-3,4-bis((Z)-Hexadec-9-enyloxy)pyrrolidine] | 140.3
25 | CCCCCCCCCCC/C=C\CCCCCO[C@@H]1CNC[C@H]1OCCCCC/C=C\CCCCCCCCCCC [Compound 7, (3R,4R)-3,4-bis((Z)-Octadec-6-enyloxy)pyrrolidine] | 148.7

— patent US20170349532A1, “CATIONIC LIPID” (Kyowa Hakko Kirin Co., Ltd., priority 2011, published 2017)
